pIC50: −log10 of the molar value. Values belong to the compound of their own block, whether it stands above or below them.
Assays:
[1] = Inhibition of mouse brain monoamine oxidase
[2] = molecular target: T1, Amine oxidase [flavin-containing] A (Homo sapiens, UniProt P21397); experiment: Inhibition of MAO-A (unknown origin)
T1 sequence (P21397 whole entry): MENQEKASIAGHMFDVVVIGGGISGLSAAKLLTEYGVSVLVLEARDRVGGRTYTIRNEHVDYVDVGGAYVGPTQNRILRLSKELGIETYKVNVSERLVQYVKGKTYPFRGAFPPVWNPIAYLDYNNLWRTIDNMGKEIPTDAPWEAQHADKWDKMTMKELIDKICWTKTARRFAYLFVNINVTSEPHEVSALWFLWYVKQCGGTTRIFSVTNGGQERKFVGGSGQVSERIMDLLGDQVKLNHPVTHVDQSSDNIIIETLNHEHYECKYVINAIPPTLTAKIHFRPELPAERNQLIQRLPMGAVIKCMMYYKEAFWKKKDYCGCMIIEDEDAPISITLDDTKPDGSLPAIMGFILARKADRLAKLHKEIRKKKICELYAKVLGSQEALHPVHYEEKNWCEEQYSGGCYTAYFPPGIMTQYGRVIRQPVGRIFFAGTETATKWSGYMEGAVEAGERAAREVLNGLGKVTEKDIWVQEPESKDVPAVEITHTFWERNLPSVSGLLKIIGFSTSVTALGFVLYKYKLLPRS

[3] = molecular target: T2, Amine oxidase [flavin-containing] A (Mus musculus, UniProt Q64133); experiment: Inhibition of mouse brain MAO-A
T2 sequence (Q64133 whole entry): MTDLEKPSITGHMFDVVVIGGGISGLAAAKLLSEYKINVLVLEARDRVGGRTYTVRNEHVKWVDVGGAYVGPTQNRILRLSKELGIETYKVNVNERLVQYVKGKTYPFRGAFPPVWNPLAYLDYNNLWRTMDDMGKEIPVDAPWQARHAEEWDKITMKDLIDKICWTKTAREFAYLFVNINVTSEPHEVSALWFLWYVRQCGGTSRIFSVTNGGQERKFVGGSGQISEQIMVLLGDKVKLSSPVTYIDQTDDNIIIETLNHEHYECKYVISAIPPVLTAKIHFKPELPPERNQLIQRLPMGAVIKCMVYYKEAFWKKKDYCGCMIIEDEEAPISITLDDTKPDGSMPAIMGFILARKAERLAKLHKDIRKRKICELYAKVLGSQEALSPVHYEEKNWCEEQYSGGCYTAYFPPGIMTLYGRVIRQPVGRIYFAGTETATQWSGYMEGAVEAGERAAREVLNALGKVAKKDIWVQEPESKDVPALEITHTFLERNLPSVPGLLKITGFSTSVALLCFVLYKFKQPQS

[4] = molecular target: T3, Amine oxidase [flavin-containing] B (Mus musculus, UniProt Q8BW75); experiment: Inhibition of mouse brain MAO-B
T3 sequence (Q8BW75 whole entry): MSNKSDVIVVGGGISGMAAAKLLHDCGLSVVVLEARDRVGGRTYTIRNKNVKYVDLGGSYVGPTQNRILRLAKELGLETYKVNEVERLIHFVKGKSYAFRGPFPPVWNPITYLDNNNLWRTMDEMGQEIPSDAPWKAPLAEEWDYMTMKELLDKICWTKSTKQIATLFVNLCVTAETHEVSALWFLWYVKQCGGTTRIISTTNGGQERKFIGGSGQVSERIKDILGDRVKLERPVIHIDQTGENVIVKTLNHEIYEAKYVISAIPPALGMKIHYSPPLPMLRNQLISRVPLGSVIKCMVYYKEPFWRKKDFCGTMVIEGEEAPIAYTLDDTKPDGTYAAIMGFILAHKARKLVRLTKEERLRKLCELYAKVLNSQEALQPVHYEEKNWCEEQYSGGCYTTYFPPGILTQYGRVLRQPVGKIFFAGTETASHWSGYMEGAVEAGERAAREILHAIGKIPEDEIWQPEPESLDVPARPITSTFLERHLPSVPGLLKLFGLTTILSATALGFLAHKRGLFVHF

Homo sapiens [5] = species on record: Homo sapiens; experiment: Selectivity ratio for MAO-A (unknown origin) over MAO-B (unknown origin)
Homo sapiens [6] = species on record: Homo sapiens; experiment: Selectivity index, ratio of pIC50 for MAO-B (unknown origin) to pIC50 for MAO-A (unknown origin)
[7] = molecular target: T4, Amine oxidase [flavin-containing] B (Homo sapiens, UniProt P27338); experiment: Inhibition of MAO-B (unknown origin)
T4 sequence (P27338 whole entry): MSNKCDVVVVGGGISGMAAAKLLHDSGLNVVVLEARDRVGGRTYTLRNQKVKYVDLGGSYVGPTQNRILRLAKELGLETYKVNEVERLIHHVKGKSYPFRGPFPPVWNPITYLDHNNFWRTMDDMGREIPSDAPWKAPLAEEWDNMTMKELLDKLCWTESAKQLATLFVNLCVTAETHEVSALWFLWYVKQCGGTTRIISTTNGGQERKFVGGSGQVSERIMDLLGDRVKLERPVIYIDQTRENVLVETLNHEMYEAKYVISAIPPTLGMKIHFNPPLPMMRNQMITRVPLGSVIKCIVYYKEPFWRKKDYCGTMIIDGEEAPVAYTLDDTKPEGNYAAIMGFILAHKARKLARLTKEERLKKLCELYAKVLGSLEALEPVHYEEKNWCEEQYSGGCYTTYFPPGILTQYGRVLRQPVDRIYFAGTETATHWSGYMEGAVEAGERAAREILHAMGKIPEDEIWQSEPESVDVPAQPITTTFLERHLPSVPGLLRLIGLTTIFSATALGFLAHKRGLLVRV

[8] = Inhibition of mouse brain monoamine oxidase using kynuramine as substrate by fluorometric analysis

SMILES: C=C(C)[C@H](O)CC/C(C)=C/COc1ccc2ccc(=O)oc2c1
- pIC50 [3]: 5.89
- pIC50 [4]: 6.30
- pIC50 [1]: 6.15

SMILES: CC1(C)OC(/C=C/COc2ccc3ccc(=O)oc3c2)=CC1=O
- Selectivity ratio (Homo sapiens [5]): 850

SMILES: O=C(O)c1cc2ccccc2oc1=O [COUMARIN-3-CARBOXYLIC ACID]
- Ratio pIC50 (Homo sapiens [6]): 2.94
- pIC50 [7]: 7.76

SMILES: COc1c2ccoc2cc2oc(=O)ccc12 [BERGAPTEN]
- pIC50 [1]: 4.86
- pIC50 [2]: 4.86

SMILES: COc1cc2oc(=O)ccc2cc1O [ISOSCOPOLETIN]
- pIC50 [8]: 4.49

SMILES: O=C(Cl)c1cc2cc(Cl)ccc2oc1=O
- pIC50 [7]: 8.00

SMILES: CC(C)=CCC/C(C)=C/COc1ccc2ccc(=O)oc2c1
- pIC50 [3]: 10.46
- pIC50 [4]: 6.22
- pIC50 [1]: 5.77

Other lines, results leading:

- pIC50 [1]: 4.45
- pIC50 [2]: 4.67
SMILES: O=c1ccc2cc3ccoc3cc2o1 [PSORALEN]

- pIC50 [1]: 4.56
SMILES: C/C=C(/C)C(=O)O[C@H]1[C@@H](OC(C)=O)c2c(ccc3ccc(=O)oc23)OC1(C)C

- pIC50 [8]: 4.51
SMILES: O=c1ccc2cc(O)c(O)cc2o1 [ESCULETIN]

- pIC50 [3]: 5.24
- pIC50 [4]: 4.54
- pIC50 [1]: 5.04
SMILES: COc1c(OCC=C(C)C)ccc2ccc(=O)oc12 [LACINARTIN]

- pIC50 [8]: 4.35
SMILES: COc1cc2ccc(=O)oc2cc1O [SCOPOLETIN]

- Ratio pIC50 (Homo sapiens [6]): 2.8
- pIC50 [7]: 7.72
SMILES: Cc1ccc2oc(=O)c(C(=O)O)cc2c1

Source: ChEMBL document CHEMBL2375267, “A comprehensive review on synthesis and designing aspects of coumarin derivatives as monoamine oxidase inhibitors for depression and Alzheimer's disease” (Bioorg Med Chem, 2013)
